Structures are written as SMILES. Where a SMILES comes first, the peptide text is derived from it. Bridges are numbered along the chain shown (N, C = ends). [ ]: non-standard residue; d: D form. The star is where a group is joined. X1 = O=C(O)CCCCCCCCCCCCCCCCC(=O)N[C@@H](CCC(=O)NCCOCCOCCOCCOCCOCCOCCOCCOCCOCCOCCOCCn1cc(C*)nn1)C(=O)O; Phe(4-COOH) = N[C@@H](Cc1ccc(C(=O)O)cc1)C(=O)O; Phe(4-CH2NH2) = NCc1ccc(C[C@H](N)C(=O)O)cc1; Bip = N[C@@H](Cc1ccc(-c2ccccc2)cc1)C(=O)O; Phe(3-Me) = Cc1cccc(C[C@H](N)C(=O)O)c1; C12 diacid = O=C(O)CCCCCCCCCCC(=O)*; 4Pal = N[C@@H](Cc1ccncc1)C(=O)O; Cha = N[C@@H](CC1CCCCC1)C(=O)O; Carboxymethyl = O=C(O)C*; NMeA = CN[C@@H](C)C(=O)O; Nle = CCCC[C@H](N)C(=O)O; Orn = NCCC[C@H](N)C(=O)O; Dab = NCC[C@H](N)C(=O)O; Nva = CCC[C@H](N)C(=O)O; Dap = NC[C@H](N)C(=O)O; AEEA = NCCOCCOCC(=O)O

Broadly, the IC50 is the concentration at which inhibition is half-maximal.

T1 sequence (Q15116 25-288): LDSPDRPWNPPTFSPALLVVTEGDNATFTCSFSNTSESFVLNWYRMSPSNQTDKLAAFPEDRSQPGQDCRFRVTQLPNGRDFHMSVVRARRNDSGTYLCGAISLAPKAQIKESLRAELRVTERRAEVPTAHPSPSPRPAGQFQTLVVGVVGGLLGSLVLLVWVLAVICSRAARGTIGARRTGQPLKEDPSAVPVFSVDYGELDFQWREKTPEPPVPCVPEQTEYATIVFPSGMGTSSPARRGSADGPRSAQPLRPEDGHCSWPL

The first test has as its target T1, human PD-1 (Jurkat-PD-1 cells; binding of PE-labeled human PD-L1-Ig) (Homo sapiens, UniProt Q15116).
T1 construct: expressed in transfected cells; host or cells: Jurkat (Jurkat-PD-1 / Jurkat-hPD-1)
Put plainly: Jurkat-PD-1 Cell Binding High-Content Screening Assay.
Details: not given
The procedure: The ability of the compounds of formula (I) to bind to PD-1 was investigated using a Jurkat-PD-1 Cell Binding High-Content Screening Assay.
Phycoerythrin (PE) was covalently linked to the Ig epitope tag of human PD-L1-Ig and fluorescently-labeled PD-L1-Ig was used for binding studies with a Jurkat cell line over-expressing human PD-1 (Jurkat-PD-1). Briefly, 8×10^3 Jurkat-hPD-1 cells were seeded into 384 well plates in 20 μl of DIVEM supplemented with 10% fetal calf serum. 100 nl of compound was added to cells followed by incubation at 37° C. for 2 h. Then, 5 μl of PE-labeled PD-L1-Ig (20 nM final), diluted in DiVEM supplemented with 10 fetal calf serum. After 1 hour incubation, cells were fixed with […] in dPBS containing 10 µg/mL Hoechst 33342 and then washed 3× in 100 μl dPB S. Data was collected and processed using a Cell Insight NXT High Content Imager and associated software.
With `CCCC[C@@H]1NC(=O)CSC[C@@H](C(=O)N[C@@H](CCN)C(N)=O)NC(=O)[C@H](CCC(=O)O)NC(=O)[C@H](C(C)C)NC(=O)[C@H](CC2CCCCC2)NC(=O)[C@H](CCN)NC(=O)[C@@H](CC(C)C)NC(=O)[C@H](CCCN)NC(=O)[C@H](Cc2ccc(OCc3cn(CCOCCOCCOCCOCCOCCOCCOCCOCCOCCOCCOCCNC(=O)CC[C@H](NC(=O)CCCCCCCCCCCCCCCCC(=O)O)C(=O)O)nn3)cc2)NC(=O)[C@H](Cc2ccc(-c3ccccc3)cc2)NC(=O)[C@H](Cc2ccc(C(=O)O)cc2)NC(=O)[C@H](Cc2cccc(C)c2)NC(=O)[C@H](CC(=O)O)NC(=O)[C@H](Cc2ccc(C(=O)O)cc2)NC1=O` [Compound 1028] ({CH2CO}-[Nle][Phe(4-COOH)]D[Phe(3-Me)][Phe(4-COOH)][Bip]Y(X1)[Orn][dL][Dab][Cha]VEC[Dab]-NH2; thioether N-14), the IC50 turned out to be 430 nM.

The same test, now with this note: Jurkat cell line over-expressing human PD-1; compound 2 h at 37° C., then PE-labeled PD-L1-Ig 20 nM final, 1 hour; read-out: Jurkat hPD1 PDL1 IC50.
For the compound `CCC[C@@H]1NC(=O)CSC[C@@H](C(=O)N[C@@H](CCN)C(N)=O)NC(=O)[C@H](CCC(=O)O)NC(=O)[C@H](C(C)C)NC(=O)[C@H](CC2CCCCC2)NC(=O)[C@H](CCN)NC(=O)[C@@H](CC(C)C)NC(=O)[C@H](CCCN)NC(=O)[C@H](Cc2ccc(C(=O)O)cc2)NC(=O)[C@H](Cc2ccc(-c3ccccc3)cc2)NC(=O)[C@H](Cc2ccc(OCc3cn(CCOCCOCCOCCOCCOCCOCCOCCOCCOCCOCCOCCNC(=O)CC[C@H](NC(=O)CCCCCCCCCCCCCCCCC(=O)O)C(=O)O)nn3)cc2)NC(=O)[C@H](Cc2cccc(C)c2)NC(=O)[C@H](CC(=O)O)NC(=O)[C@H](Cc2ccc(C(=O)O)cc2)NC1=O` [Compound 1022] ({CH2CO}-[Nva][Phe(4-COOH)]D[Phe(3-Me)]Y(X1)[Bip][Phe(4-COOH)][Orn][dL][Dab][Cha]VEC[Dab]-NH2; thioether N-14), the half-inhibitory concentration (IC50) is 54 nM.

As for `Cc1cccc(C[C@@H]2NC(=O)[C@H](CC(=O)O)NC(=O)[C@H](Cc3ccc(C(=O)O)cc3)NC(=O)[C@H]([C@@H](C)O)NC(=O)CSC[C@@H](C(=O)N[C@@H](CCN)C(N)=O)NC(=O)[C@H](CCC(=O)O)NC(=O)[C@H](C(C)C)NC(=O)[C@H](CC3CCCCC3)NC(=O)[C@H](CCN)NC(=O)[C@@H](CC(C)C)NC(=O)[C@H](CCCN)NC(=O)[C@H](Cc3ccc(C(=O)O)cc3)NC(=O)[C@H](Cc3ccc(-c4ccccc4)cc3)NC(=O)[C@H](Cc3ccc(OCc4cn(CCOCCOCCOCCOCCOCCOCCOCCOCCOCCOCCOCCNC(=O)CC[C@H](NC(=O)CCCCCCCCCCCCCCCCC(=O)O)C(=O)O)nn4)cc3)NC2=O)c1` [Compound 1023] ({CH2CO}-T[Phe(4-COOH)]D[Phe(3-Me)]Y(X1)[Bip][Phe(4-COOH)][Orn][dL][Dab][Cha]VEC[Dab]-NH2; thioether N-14), the IC50 amounted to 99 nM.

As for `CCCC[C@@H]1NC(=O)CSC[C@@H](C(=O)N[C@@H](CCN)C(N)=O)NC(=O)[C@H](CCC(=O)O)NC(=O)[C@H](C(C)C)NC(=O)[C@H](CC2CCCCC2)NC(=O)[C@H](CCN)NC(=O)[C@@H](CC(C)C)NC(=O)[C@H](CCCN)NC(=O)[C@H](Cc2ccc(OCc3cn(CCOCCOCCOCCOCCOCCOCCOCCOCCOCCOCCOCCNC(=O)CC[C@H](NC(=O)CCCCCCCCCCCCCCCCC(=O)O)C(=O)O)nn3)cc2)NC(=O)[C@H](Cc2ccc(-c3ccccc3)cc2)NC(=O)[C@H](Cc2ccc(OCC(=O)O)cc2)NC(=O)[C@H](Cc2cccc(C)c2)NC(=O)[C@H](CC(=O)O)NC(=O)[C@H](Cc2ccc(OCC(=O)O)cc2)NC1=O` [Compound 1024] ({CH2CO}-[Nle]Y(Carboxymethyl)D[Phe(3-Me)]Y(Carboxymethyl)[Bip]Y(X1)[Orn][dL][Dab][Cha]VEC[Dab]-NH2; thioether N-14), the IC50 was determined as 400 nM.

Take `Cc1cccc(C[C@@H]2NC(=O)[C@H](CC(=O)O)NC(=O)[C@H](Cc3ccc(OCC(=O)O)cc3)NC(=O)[C@H](CCNC(=O)CCCCCCCCCCC(=O)O)NC(=O)CSC[C@@H](C(N)=O)NC(=O)[C@H]([C@@H](C)O)NC(=O)[C@H](C(C)C)NC(=O)[C@H](CC3CCCCC3)NC(=O)[C@H](CCN)NC(=O)[C@@H](CC(C)C)NC(=O)[C@H](CCCN)NC(=O)[C@H](Cc3ccc(OCC(=O)O)cc3)NC(=O)[C@H](Cc3ccc(-c4ccccc4)cc3)NC(=O)[C@H](Cc3ccc(O)cc3)NC2=O)c1` [Compound 1034] ({CH2CO}-[Dab](C12 diacid)Y(Carboxymethyl)D[Phe(3-Me)]Y[Bip]Y(Carboxymethyl)[Orn][dL][Dab][Cha]VTC-NH2; thioether N-14): the half-maximal inhibitory concentration (IC50) turned out to be 170 nM. Same read-out and setting: in the case of `Cc1cccc(C[C@@H]2NC(=O)[C@H](CC(=O)O)NC(=O)[C@H](Cc3ccc(OCC(=O)O)cc3)NC(=O)[C@H](CCCNC(=N)N)NC(=O)CSC[C@@H](C(N)=O)NC(=O)[C@H]([C@@H](C)O)NC(=O)[C@H](C(C)C)NC(=O)[C@H](CC3CCCCC3)NC(=O)[C@H](CCN)NC(=O)[C@@H](CC(C)C)NC(=O)[C@H](C)N(C)C(=O)[C@H](CCCNC(=O)CCCCCCCCCCC(=O)O)NC(=O)[C@H](Cc3ccc(-c4ccccc4)cc3)NC(=O)[C@H](Cc3ccc(O)cc3)NC2=O)c1` [Compound 1036] ({CH2CO}-RY(Carboxymethyl)D[Phe(3-Me)]Y[Bip][Orn](C12 diacid)[NMeA][dL][Dab][Cha]VTC-NH2; thioether N-14) it was 130 nM. In the case of `CC(C)C[C@H]1NC(=O)[C@H](C)N(C)C(=O)[C@H](C(C)C)NC(=O)[C@H](Cc2ccc(-c3ccccc3)cc2)NC(=O)[C@H](C(C)C)NC(=O)[C@H](Cc2c[nH]c3ccccc23)NC(=O)[C@H](CC(=O)O)NC(=O)[C@H](Cc2ccncc2)NC(=O)[C@H](Cc2ccc(CNC(=O)CCCCCCCCCCC(=O)O)cc2)NC(=O)CSC[C@@H](C(N)=O)NC(=O)[C@H](CO)NC(=O)[C@H](C(C)C)NC(=O)[C@H](CC2CCCCC2)NC(=O)[C@H](CC(N)=O)NC1=O` [Compound 1037] ({CH2CO}-[Phe(4-CH2NH2)](C12 diacid)[4Pal]DWV[Bip]V[NMeA][dL]N[Cha]VSC-NH2; thioether N-14), the IC50 stood at 120 nM. Turning to `CC(C)C[C@H]1NC(=O)[C@H](C)N(C)C(=O)[C@H](C(C)C)NC(=O)[C@H](Cc2ccc(-c3ccccc3)cc2)NC(=O)[C@H](C(C)C)NC(=O)[C@H](Cc2c[nH]c3ccccc23)NC(=O)[C@H](CC(=O)O)NC(=O)[C@H](Cc2ccc(CNC(=O)CCCCCCCCCCC(=O)O)cc2)NC(=O)[C@H](Cc2ccc(OCC(=O)O)cc2)NC(=O)CSC[C@@H](C(N)=O)NC(=O)[C@H](CO)NC(=O)[C@H](C(C)C)NC(=O)[C@H](CC2CCCCC2)NC(=O)[C@H](CC(N)=O)NC1=O` [Compound 1038] ({CH2CO}-Y(Carboxymethyl)[Phe(4-CH2NH2)](C12 diacid)DWV[Bip]V[NMeA][dL]N[Cha]VSC-NH2; thioether N-14), the IC50 is 180 nM. On to `CC(C)C[C@H]1NC(=O)[C@H](C)N(C)C(=O)[C@H](CCCCNC(=O)CCCCCCCCCCC(=O)O)NC(=O)[C@H](Cc2ccc(-c3ccccc3)cc2)NC(=O)[C@H](C(C)C)NC(=O)[C@H](Cc2c[nH]c3ccccc23)NC(=O)[C@H](CC(=O)O)NC(=O)[C@H](Cc2ccncc2)NC(=O)[C@H](Cc2ccc(OCC(=O)O)cc2)NC(=O)CSC[C@@H](C(N)=O)NC(=O)[C@H](CO)NC(=O)[C@H](C(C)C)NC(=O)[C@H](CC2CCCCC2)NC(=O)[C@H](CC(N)=O)NC1=O` [Compound 1039] ({CH2CO}-Y(Carboxymethyl)[4Pal]DWV[Bip]K(C12 diacid)[NMeA][dL]N[Cha]VSC-NH2; thioether N-14), for which the IC50 turned out to be 870 nM.

For `Cc1cccc(C[C@@H]2NC(=O)[C@H](CC(=O)O)NC(=O)[C@H](Cc3ccc(OCC(=O)O)cc3)NC(=O)[C@H](CN)NC(=O)CSC[C@@H](C(=O)N[C@@H](CCN)C(=O)NCCOCCOCC(N)=O)NC(=O)[C@H]([C@@H](C)O)NC(=O)[C@H](C(C)C)NC(=O)[C@H](CC3CCCCC3)NC(=O)[C@H](CCN)NC(=O)[C@@H](CC(C)C)NC(=O)[C@H](CCCN)NC(=O)[C@H](Cc3ccc(OCC(=O)O)cc3)NC(=O)[C@H](Cc3ccc(-c4ccccc4)cc3)NC(=O)[C@H](COCc3cn(CCOCCOCCOCCOCCOCCOCCOCCOCCOCCOCCOCCNC(=O)CC[C@H](NC(=O)CCCCCCCCCCCCCCCCC(=O)O)C(=O)O)nn3)NC2=O)c1` [Compound 1040] ({CH2CO}-[Dap]Y(Carboxymethyl)D[Phe(3-Me)]S(X1)[Bip]Y(Carboxymethyl)[Orn][dL][Dab][Cha]VTC[Dab][AEEA]-NH2; thioether N-14), the 50% inhibitory concentration (IC50) was 250 nM. Consider `Cc1cccc(C[C@@H]2NC(=O)[C@H](CC(=O)O)NC(=O)[C@H](Cc3ccc(OCC(=O)O)cc3)NC(=O)[C@H](CN)NC(=O)CSC[C@@H](C(=O)N[C@@H](CCN)C(=O)NCCOCCOCC(N)=O)NC(=O)[C@H](COCc3cn(CCOCCOCCOCCOCCOCCOCCOCCOCCOCCOCCOCCNC(=O)CC[C@H](NC(=O)CCCCCCCCCCCCCCCCC(=O)O)C(=O)O)nn3)NC(=O)[C@H](C(C)C)NC(=O)[C@H](CC3CCCCC3)NC(=O)[C@H](CCN)NC(=O)[C@@H](CC(C)C)NC(=O)[C@H](CCCN)NC(=O)[C@H](Cc3ccc(OCC(=O)O)cc3)NC(=O)[C@H](Cc3ccc(-c4ccccc4)cc3)NC(=O)[C@H](Cc3ccc(OCC(=O)O)cc3)NC2=O)c1` [Compound 1041] ({CH2CO}-[Dap]Y(Carboxymethyl)D[Phe(3-Me)]Y(Carboxymethyl)[Bip]Y(Carboxymethyl)[Orn][dL][Dab][Cha]VS(X1)C[Dab][AEEA]-NH2; thioether N-14), for which the IC50 was determined as 140 nM.
